Assay results as given in ChEMBL document CHEMBL4033751, “Synthesis and biological evaluation of caffeic acid derivatives as potent inhibitors of α-MSH-stimulated melanogenesis” (Bioorg Med Chem Lett, 2017).

Assays:
[1] = Cytotoxicity in mouse B16 cells assessed as cell viability at 5 uM by MTT assay; assay type: cell-based; conditions: read-out: Activity
[2] = tested on: B16; assay: Inhibition of alpha-MSH-stimulated melanogenesis in mouse B16 cells assessed as reduction in melanin formation; assay type: functional, cell-based
[3] = Cytotoxicity in mouse B16 cells assessed as cell viability at 10 uM by MTT assay; assay type: cell-based; conditions: read-out: Activity
[4] = Cytotoxicity in mouse B16 cells assessed as cell viability at 20 uM by MTT assay; assay type: cell-based; conditions: read-out: Activity
[5] = Cytotoxicity in mouse B16 cells assessed as cell viability at 40 uM by MTT assay; assay type: cell-based; conditions: read-out: Activity
[6] = Cytotoxicity in mouse B16 cells assessed as cell viability at 2.5 uM by MTT assay; assay type: cell-based; conditions: read-out: Activity

IC50 [2] [µM]	SMILES	viability at 5 µM [1] [%]	viability at 10 µM [3] [%]	viability at 20 µM [4] [%]	viability at 40 µM [5] [%]	viability at 2.5 µM [6] [%]
1.9	O=C(/C=C/c1ccc(O)c(O)c1)Nc1cccc([N+](=O)[O-])c1	24 to 35	48	–	–	–
1.4	O=C(/C=C/c1ccc(O)c(O)c1)Nc1ccc([N+](=O)[O-])cc1	30 to 35	51 to 62	–	–	–
7.6	O=C(/C=C/c1ccc(O)c(O)c1)Nc1ccccc1	–	21	–	–	–
> 40	O=C(CCc1ccc(O)c(O)c1)O[C@@H]1C[C@](O)(C(=O)O)C[C@@H](O)[C@H]1O	–	–	–	–	–
6.2	COc1ccc(CNC(=O)/C=C/c2ccc(O)c(O)c2)cc1	–	–	20	37 to 54	–
> 40	O=C(/C=C/c1ccc(O)c(O)c1)N1CCNCC1	–	–	31	–	–
6.5	O=C(/C=C/c1ccc(O)c(O)c1)NCc1ccccc1Cl	–	–	–	0	–
1.2	CCCCc1ccc(NC(=O)/C=C/c2ccc(O)c(O)c2)cc1	68 to 96	–	–	–	33 to 49
1.6	O=C(/C=C/c1ccc(O)c(O)c1)NCc1ccc(C(F)(F)F)cc1	26	39 to 48	–	–	–
1.8	O=C(/C=C/c1ccc(O)c(O)c1)NCc1ccc(Cl)cc1	23	39 to 53	–	–	–
> 40	NS(=O)(=O)c1ccc(CNC(=O)/C=C/c2ccc(O)c(O)c2)cc1	–	–	–	0	–
7	COc1ccccc1CNC(=O)/C=C/c1ccc(O)c(O)c1	–	–	20	35 to 46	–
5.8	CC(C)(C)OC(=O)N1CCN(C(=O)/C=C/c2ccc(O)c(O)c2)CC1	–	–	31	–	–
20	Cc1ccccc1CNC(=O)/C=C/c1ccc(O)c(O)c1	–	25	33 to 49	–	–
3.4	CC(C)c1ccc(NC(=O)/C=C/c2ccc(O)c(O)c2)cc1	15	82	–	–	–
2.8	O=C(/C=C/c1ccc(O)c(O)c1)NC1CCCCC1	–	23	–	–	–

IC50 [2] [µM]	SMILES	viability at 5 µM [1] [%]	viability at 10 µM [3] [%]	viability at 20 µM [4] [%]	viability at 40 µM [5] [%]	viability at 2.5 µM [6] [%]
1.8	O=C(/C=C/c1ccc(O)c(O)c1)NCc1ccccc1C(F)(F)F	22 to 28	33 to 49	–	–	–
1.4	O=C(/C=C/c1ccc(O)c(O)c1)NCc1cccc(C(F)(F)F)c1	24	29 to 47	–	–	–
1.4	O=C(/C=C/c1ccc(O)c(O)c1)Nc1cccc(C(F)(F)F)c1	60 to 82	–	–	–	22 to 36
6	O=C(/C=C/c1ccc(O)c(O)c1)NCc1cccc(Cl)c1	–	22	59 to 62	–	–
30	O=C(/C=C/c1ccc(O)c(O)c1)NC1CCCC1	–	–	–	0	–
3	Cc1cccc(CNC(=O)/C=C/c2ccc(O)c(O)c2)c1	–	20	45	–	–
1.4	O=C(/C=C/c1ccc(O)c(O)c1)Nc1ccc(C(F)(F)F)cc1	56 to 58	77 to 90	–	–	–
3.7	Cc1ccc(CNC(=O)/C=C/c2ccc(O)c(O)c2)cc1	–	20	22 to 30	–	–
0.2	CC(=O)Oc1ccc(/C=C/C(=O)OC2CCCCC2)cc1OC(C)=O	–	–	–	–	24
1	Cc1n[nH]c(NC(=O)/C=C/c2ccc(O)c(O)c2)c1-c1ccc(Br)cc1	68 to 93	–	–	–	29 to 56
7	O=C(/C=C/c1ccc(O)c(O)c1)OC1CCCCC1	–	30	–	–	–
8	O=C(/C=C/c1ccc(O)c(O)c1)NCc1ccccc1	–	23	–	–	–
24	O=C(/C=C/c1ccc(O)c(O)c1)N1CCCCC1	–	–	–	0	–
400	OC[C@H]1O[C@@H](Oc2ccc(O)cc2)[C@H](O)[C@@H](O)[C@@H]1O [ARBUTIN]	–	–	–	–	–
> 40	COC(=O)[C@]1(O)C[C@@H](O)[C@@H](O)[C@H](OC(=O)/C=C/c2ccc(O)c(O)c2)C1 [CHLOROGENIC ACID METHYL ESTER]	–	–	–	–	–

SMILES	IC50 [2] [µM]	viability at 5 µM [1] [%]	viability at 10 µM [3] [%]	viability at 20 µM [4] [%]	viability at 40 µM [5] [%]	viability at 2.5 µM [6] [%]
O=c1cc(CO)occ1O [KOJIC ACID]	57	–	–	–	–	–
